Assay results taken from patent publication US20190145953A1, “METHODS AND MATERIALS FOR ASSESSING INTESTINAL PERMEABILITY” (Mayo Foundation for Medical Education and Research, priority 2016, published 2019).
One block for each compound: values may come before it.

Assays:
[1] = human, in vivo
Experimental: The following was performed to determine if administration of ^13C-mannitol can be used to measure intestinal permeability. Ten healthy volunteers (five females) received oral sugars after 8 hours of fasting. Those volunteers using tobacco, NSAIDs, oral corticosteroids, sweeteners, lactulose, mannitol, or medications affecting gastrointestinal transit were excluded. Three saccharides (100 mg of ^13C-mannitol, 100 mg of ^12C-mannitol (regular mannitol), and 1000 mg of ^12C-lactulose (regular lactulose)) dissolved in 250 mL of water were administered. 0-2 hour cumulative mannitol and 8-24 hour cumulative lactulose or mannitol excretion were measured to assess small intestinal and colonic permeability, respectively. After baseline urine collection, collections were pooled for 0-2 hours, 2-8 hours, and 8-24 hours following administration of test sugars. High performance liquid chromatography-tandem mass spectrometry was performed to determine urinary sugar concentrations. Cumulative excretions and lactulose:mannitol (L:M) ratios (ratio of fractional excretion) were calculated. Mann-Whitney test was used for statistical analysis.

[2] = human, in vivo; remark: listed apart in the source
Experimental: The following was performed to evaluate safety and effectiveness of oral nutritional therapy with serum-derived bovine immunoglobulin (SBI) on symptoms, epithelial barrier function, and mucosal expression of pivotal genes in small intestinal mucosa (SI) in patients with IBS-D. This open-label pilot study evaluated effects of SBI, 5.0 g twice daily for 8 weeks, in 15 patients with IBS-D (Rome III) on symptoms, tryptophan metabolism (kynurenine to tryptophan ratio), intestinal permeability [measured by two sugars (^13C-mannitol and lactulose) urine excretion: 0-2 hours (SI) and 2-8 hours (SI and colon)] and distal duodenal mucosal mRNA expression of pivotal genes including tight junction, secretory mechanisms, tissue repair proteins and chemokines. Bowel function and abdominal pain (worst and average) were evaluated using a daily diary including the Bristol Stool Form Scale, and bile acid homeostasis by fasting serum FGF-19 and 7αC4. Statistical analysis was based on ITT principles using paired tests (comparing baseline with results of therapy over 8 weeks or in final 2 weeks) and included imputation for missing data for one patient.

[3] = format: in vivo, human
Experimental: 24 healthy volunteers (12 females) aged 18-65 years are recruited. Those using NSAIDs, oral corticosteroids, artificial sweeteners (Splenda, aspartame), lactulose, mannitol, or medications affecting gastrointestinal transit are excluded. All 24 participants undergo a baseline urinary excretion assay using the three saccharides (100 mg ^13C mannitol, 100 mg ^12C mannitol, and 1000 mg lactulose) dissolved in 250 mL of water. 500 mL of water is administered 30 minutes after the sugars are ingested to aid in the production of urine. Participants are allowed regular amounts of water throughout the study, and no standardized meals are provided. Cumulative urine samples for 0-2 hours are collected while they are in the CRU and stored. Two containers are provided for the cumulative 2-8 hour collection and cumulative 8-24 hour collection. Participants are instructed to return these collections the following day. The collections are subjected to HPLC-MS for quantitative estimation of the sugars.
These participants receive 75 mg of Indomethacin orally 8 hour and 30 minutes prior to a second urinary excretion assay using the same three sugars. Finally, these participants undergo a third assay after 4 weeks from the end of the second assay in the absence of any indomethacin or other NSAIDs or perturbations. All three assays are done using the same protocol and urinary collections. Additionally, these participants undergo an upper endoscopy with duodenal biopsies at baseline and after Indomethacin challenge. The ^13C mannitol-assay based urinary excretion findings are correlated with histology findings on light microscopy and with ex vivo mucosal barrier function/permeability. For this, tw freshly obtained biopsies are mounted in 4 mL Ussing chambers (Physiological Instruments, California, USA) exposing a 0.03 cm^2 area. Transepithelial resistance is measured using Ag/AgCl electrodes with agar-salt bridges and current delivered with platinum electrodes. Macromolecular flux across biopsies are studied using FITC Dextran (4 kDa, Molecular Probes, New York). At 30-minute intervals for a total of 3 hours, basal compartment fluorescence are analyzed.
At each visit, baseline excretion of ^12C mannitol was higher than the ^13C mannitol (p<0.0001) with 5 of 73 subjects excreting >10 mg of ^12C mannitol prior to test dose administration. At visit 1, one subject excreted 62 mg of ^12C mannitol, which dropped to 28 mg after test dose administration.
This recovered completely at visit 3. Both low and high dose Indomethacin had similar effects. […] It is possible that intestinal microflora can influence the L:M based excretion assay for intestinal permeability. To test this, seven patients underwent a fourth testing following bowel prep with MoviPrep. […] This could reflect increased transit after the bowel prep resulting in less contact time between the sugar and the absorptive surface area.

colonic bacteria = conditions: in vivo, po; cited from earlier work
[4] = Cumulative urinary excretion of oral sugars by HPLC-MS in IBS-C patients and healthy volunteers (Example 3); format: in vivo, human
Experimental: The following was performed to determine duodenal and colonic barrier function and endotoxin activity in females with IBS-C in comparison to healthy. 16 IBS-C (Rome III) patients and 13 matched healthy volunteers (females) were given oral lactulose, ^12C mannitol and ^13C mannitol measured cumulatively over 0-2 and 8-24 hours by HPLC-MS. 10 biopsies were obtained from duodenum and sigmoid colon. Mucosal transepithelial resistance (TER), FITC dextran (4 KDa), and E. coli K12 BioParticle flux were measured in Ussing chambers. Endotoxin activity (blood) was measured towards gram-negative bacterial lipopolysaccharide. Unpaired 2-sided t-tests were used for comparisons.

[5] = Indomethacin challenge, p=0.004

Compound: COc1ccc2c(c1)c(CC(=O)O)c(C)n2C(=O)c1ccc(Cl)cc1 [Indomethacin]
0-2h lactulose excretion compared to baseline (visit 1) ([3]; Indomethacin challenge, p<0.0001): increased
2-8h lactulose excretion compared to baseline (visit 1) [3, 5]: increased
8-24h lactulose excretion compared to baseline (visit 1) [3, 5]: increased
12C or 13C mannitol excretion with Indomethacin treatment ([3]; either excretion time-point): did not increase

Compound: OC[C@@H](O)[C@@H](O)[C@H](O)[C@H](O)CO [mannitol]
Fraction of orally ingested mannitol metabolized by colonic bacteria (colonic bacteria): about 75%

Compound: OC[C@H]1O[C@@H](O[C@@H]2[C@@H](CO)OC(O)(CO)[C@H]2O)[C@H](O)[C@@H](O)[C@H]1O (mixture of isomers) [lactulose]
0-2 hr cumulative urinary excretion (mg), mean (SEM) ([4]; Healthy Volunteers (n=11)): 0.99(0.12) mg
8-24 hr cumulative urinary excretion (mg), mean (SEM) ([4]; Healthy Volunteers (n=11)): 0.72(0.31) mg
0-2 hr cumulative urinary excretion (mg), mean (SEM) ([4]; IBS-C (n=16)): 1.12(0.19) mg
8-24 hr cumulative urinary excretion (mg), mean (SEM) ([4]; IBS-C (n=16)): 1.06(0.55) mg

Continued, in another order:

L:M ratio: Mean (SEM), 0-2 hours [1]: 0.007
L:M ratio: Mean (SEM), 2-8 hours [1]: 0.01
L:M ratio: Mean (SEM), 8-24 hours [1]: 0.01
Mean lower baseline contamination vs 12C mannitol [1]: 20 fold
Participants with disproportionately high baseline excretion [1]: none
Excretion at baseline in IBS-D patients vs 8 healthy controls [2]: did not differ
Baseline excretion ([3]; in vivo): nearly undetectable
Change of excretion in the 0-2 hr interval compared with baseline ([3]; in vivo): increased in all cases
Compound: ^13C-mannitol

L:M ratio: Mean (SEM), 0-2 hours [1]: 0.006
L:M ratio: Mean (SEM), 2-8 hours [1]: 0.009
L:M ratio: Mean (SEM), 8-24 hours [1]: 0.002
Participants with disproportionately high baseline excretion [1]: Three of the ten
Baseline excretion ([3]; in vivo): higher
Cumulative (0-24h) mean recovery, comparison 12C vs 13C mannitol ([3]; in vivo): significantly higher
Excretion of one subject after test dose administration ([3]; in vivo): 28 mg
Excretion of one subject at baseline ([3]; in vivo): 62 mg
Subjects excreting >10 mg prior to test dose administration ([3]; in vivo): 5 of 73
Compound: OC[C@@H](O)[C@@H](O)[C@H](O)[C@H](O)CO [^12C-mannitol]
Change of excretion in the 0-2 hr interval compared with baseline ([3]; in vivo): four subjects exhibited no significant increase
